# In US8987449B2, “Medicine for treating ischemic brain injury and its sequelae, and preparation method thereof” (Haimin Lei, priority 2011, dated 2015):
# Columns and labels:
# [1] = tested on: ICR mice; assay: Buccal respiration duration of mice after head cutting (4° C. icy water swimming model); type: in vivo, mouse; conditions: control 32.45 ± 5.49
# Method: ICR mice, half female and half male, weighing 19-21 g, certificate No.: SCXK (Jing) 2006-0009, provided by BeiJing Vital River Laboratories.
# LQC-T4, tetramethylpyrazine (TMP), vanillic acid, Nimodipine (ShanDong XinHua Pharmaceutical CO., Ltd, batch No.: 0908164)
# 160 male ICR mice were divided into 8 groups randomly by weight, each of which contained 20 mice, wherein 0.5% CMC-NA (0.2 ml·10 g^−1) was administrated intragastrically to the blank control group; 6.7 mg·kg^−1 Nimodipine (0.2 ml·10 g^−1) was administrated intragastrically to the positive control group; 100 mg·kg^−1 TMP (0.2 ml·10 g^−1) was administrated intragastrically to the TMP group, three different dosage of 200 mg·kg^−1, 100 mg·kg^−1, 50 mg·kg^−1 were administrated intragastrically to the LQC-T4 (0.2 ml·10 g^−1) group relatively, and 125 mg·kg^−1 TMP+80 mg·kg^−1 vanillitc acid (0.2 ml·10 g^−1) was administrated intragastrically respectively. The medicines were continuously administrated once a day for 10 days.
# The literature was referred to: [LiuZhenquan, SunHui, Xuqiuping, etc., Experimental Study on the Brain-Protective Effect of the Effective Fraction of Naoxin Formula in the Mouse Model of with Load-Bearing Swimming in Cold Water, Journal of Beijing University of Traditional Chinese Medicine [J], 2004, 27(4): 54-56] and the method recorded therein was improved. The head was rapidly cut with a scissor at post mortem when the mouse swam in 4° C. icy water for 3 min after the final administration. After head being cut, the buccal respiration duration of mouse was recorded.
# The SAS 8.2 statistical software was used to carry out the one-way ANOVA variance analysis and the difference among the groups were compared by t-test.
# [2] = tested on: MCAO rats; assay: Tactile stimulus experiment (time of MCAO rats removing the tape); type: in vivo, rat; conditions: for time of removing the tape, Evaluation (3 d): model group 244.29 ± 95.46; for time of removing the tape, Evaluation (7 d): model group 221.53 ± 105.33
# From the text: 140 healthy SD male rats, weighing 280-300 g, provided by Beijing Vital River Laboratories, certificate No.: SCXK (Jing) 2002-2003. The method of [Koizumi J, Yoshida […]. Experimental studies of ischemia brain edema, I: A new experimental model of cerebral embolism in rats in which recirculation can be introduced in the ischemic area[J]. […] After the rats were anesthetized and the skin thereof was disinfected by ethanol. By cutting right in the middle of the neck, the right common carotid artery, internal carotid artery and external carotid artery were separated and the common carotid artery and external carotid artery were ligated. The internal carotid artery was clamped with a bulldog clamp. A cut was made at the crotch of the external carotid artery and the internal carotid artery followed by releasing the bulldog clamp. […] Next, the external carotid artery was ligated and the nylon wire was fixed. In sham operation group, the right common carotid artery, the external carotid artery and the internal carotid artery were only exposed and separated. The rats were routinely raised in different cages. 0.5 ml penicillin was continuously injected into every mouse for three days after the surgery. […] The rats getting 1-3 point were selected for the subsequent experiment. The MCAO rats having the same point were distributed randomly and averagely to each experimental group. […] Evaluated was the executive function change of side forelimb sense and fine motor movement after the cerebral ischemia. […] The third and the seventh days after the administration were set as the observation time to carry out the test. The SPSS 11.0 software pack was used to carry out the statistical analysis of all the data. The comparison of the enumeration data was carried out with X^2 test P<0.05 had statistical meaning.
# [3] = tested on: SOD; assay: SOD of MCAO rats (brain homogenate, kit); type: in vivo, rat; conditions: model group 40.28 ± 7.51
# Method: (§1) 10% chloral hydrate 0.35 g/kg was injected into the abdominal cavity of a rat to anesthetize thereof. The rat was fixed as supine position. The skin was disinfected thereof by 75% medical alcohol. It was cut right in the middle of the neck. The right common carotid artery, internal carotid artery and external carotid artery were separated and the common carotid artery and external carotid artery were ligated. The internal carotid artery was clamped with a bulldog clamp. A cut was made at the crotch of the external carotid artery and the internal carotid artery followed by releasing the bulldog clamp. The nylon wire (diameter 0.25 mm, marked at a distance of 18 mm from the head end) was inserted into the cut and the insertion was stopped when some resistance was felt. The insert depth was a little longer than 18 mm to achieve the cerebral ischemia caused by middle cerebral artery occlusion. The internal carotid artery was ligated and the nylon wire was fixed. The muscle and skin were sutured layer by layer. In sham operation group, the right common carotid artery, the external carotid artery and the internal carotid artery were only exposed and separated. The rats were conventionally raised in different cages regularly. 0.5 ml penicillin was continuously injected into every rat for three days after the surgery.
# (§2) The rats were divided into 7 groups in the experiment, that is, sham operation group, model group, Nimodipine group, LQC-T4 large dosage group, LQC-T4 small dosage group, TMP group, and TMP+Vanillic acid group. The model rats getting 1 point were distributed randomly into the model group and other administration group, while the rats getting 2 point and 3 point were distributed randomly into above 6 groups according the above method and sham operation group was not involved in the above grouping. 0.5% CMC-NA (1 ml·100 g^−1) was administrated intragastrically to the blank control group and the model group, two dosage group of 120 mg·kg^−1, 60 mg·kg^−1 were administrated intragastrically to the LQC-T4 (1 ml·100 g^−1) group, and 74 mg·kg^−1 TMP+46 mg·kg^−1 vanillitc acid (1 ml·100 g^−1) were administrated intragastrically, once per day continuously for 10 days.
# (§3) 10% chloral hydrate 0.35 g/kg was injected into the abdominal cavity to anesthetize them after the rats were administrated for 10 days. The head was cut and the brain was taken. The cranial bones were stripped, the meninges were peeled off to separate the ischemia side of the brain, the blood streak was striped and then the brain was weighed. 4 times amount of 0.9 physiological saline was added and the brain was homogenized in 0° C. ice bath. […]
# (§4) It was detected with 722 type visible spectrophotometer according to the kit operation. […]
# [4] = tested on: MDA; assay: MDA of MCAO rats (brain homogenate, kit); type: in vivo, rat; conditions: model group 14.53 ± 3.29
# Method: as §1, §2, §3, §4
# [5] = 60 mg/kg intragastrically once a day
# [6] = 120 mg/kg intragastrically once a day
# [7] = 60 mg/kg intragastrically once per day for 10 days
# [8] = 120 mg/kg intragastrically once per day for 10 days
# [9] = 30 mg/kg once per day for 10 days
# [10] = 37 mg/kg once per day for 10 days
smiles,measurement,setting,value
"COc1cc(C(=O)OCc2nc(C)c(C)nc2C)ccc1OCc1nc(C)c(C)nc1C [LQC-T4, (3,5,6-trimethylpyrazine-2-yl)methyl 3-methoxy-4-((3,5,6-trimethylpyrazine-2-yl)methoxy) benzoate]",respiration duration,[1]; 50 mg/kg intragastrically once a day for 10 days,36.78 ± 5.40 s
same,respiration duration,[1]; 100 mg/kg intragastrically once a day for 10 days,36.07 ± 3.15 s
same,respiration duration,[1]; 200 mg/kg intragastrically once a day for 10 days,35.91 ± 4.25 s
same,"time of removing the tape, Evaluation (3 d)",[2]; [5],181.31 ± 133.40 s
same,"time of removing the tape, Evaluation (7 d)",[2]; [5],175.80 ± 139.06 s
same,"time of removing the tape, Evaluation (3 d)",[2]; [6],222.64 ± 104.45 s
same,"time of removing the tape, Evaluation (7 d)",[2]; [6],245.95 ± 98.23 s
same,SOD,[3]; [7],75.29 ± 30.08
same,SOD,[3]; [8],85.03 ± 56.03
same,MDA,[4]; [7],14.32 ± 6.31
same,MDA,[4]; [8],11.08 ± 4.53
"COCCOC(=O)C1=C(C)NC(C)=C(C(=O)OC(C)C)C1c1cccc([N+](=O)[O-])c1 (stereo not drawn) [Nimodipine, reference compound]",respiration duration,[1]; 6.7 mg/kg intragastrically once a day for 10 days,37.23 ± 5.37 s
same,"time of removing the tape, Evaluation (3 d)",[2]; 30 mg/kg once a day,211.13 ± 116.65 s
same,"time of removing the tape, Evaluation (7 d)",[2]; 30 mg/kg once a day,183.93 ± 124.50 s
same,SOD,[3]; [9],79.85 ± 36.57
same,MDA,[4]; [9],13.70 ± 6.56
"Cc1nc(C)c(C)nc1C [TMP, tetramethylpyrazine, reference compound]",respiration duration,[1]; 125 mg/kg intragastrically once a day for 10 days,37.26 ± 5.99 s
same,"time of removing the tape, Evaluation (3 d)",[2]; 37 mg/kg once a day,200.43 ± 117.81 s
same,"time of removing the tape, Evaluation (7 d)",[2]; 37 mg/kg once a day,211.35 ± 111.15 s
same,SOD,[3]; [10],61.58 ± 16.23
same,MDA,[4]; [10],13.27 ± 3.96
